Patent publication US20250099420A1, “SMALL MOLECULE MODULATORS OF GPR139 COMPLEX” (University of Florida Research Foundation, Incorporated, priority 2022, published 2025)
Where two headings read alike, the source gives them in different places.

Key:
GPR139 = target: T1, GPR139 (Homo sapiens, UniProt Q6DWJ6); assay: GPR139 Agonist titration / agonist counterscreen assay (calcium detection, HEK-GPR139 cells); format: cell-based; design: expressed in transfected cells; host or cells: HEK Aequorin cells, Maxcyte transient transfection; conditions: GPR139 Agonist Activity; for Averaged Max % Response (±St. Dev.): activity relative to known control; for EC50: read-out: EC50
T1 sequence (Q6DWJ6 1-353): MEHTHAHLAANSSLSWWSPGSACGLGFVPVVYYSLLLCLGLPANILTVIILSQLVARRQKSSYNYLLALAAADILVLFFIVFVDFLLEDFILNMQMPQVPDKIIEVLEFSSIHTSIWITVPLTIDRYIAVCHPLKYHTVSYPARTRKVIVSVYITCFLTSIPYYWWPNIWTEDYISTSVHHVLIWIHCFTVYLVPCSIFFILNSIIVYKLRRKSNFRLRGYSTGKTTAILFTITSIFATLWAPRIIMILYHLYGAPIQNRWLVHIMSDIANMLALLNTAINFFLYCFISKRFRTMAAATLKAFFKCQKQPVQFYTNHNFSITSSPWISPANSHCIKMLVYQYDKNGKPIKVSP
Experimental: GPR activity was assessed using a calcium detection assay. […] Negative control samples were treated with DMSO. […] Intracellular calcium was measured using Calcium 5.

parental HEK cells = assay: HEK parental Agonist Counterscreen Assay (non-transfected cells); format: cell-based; conditions: for Averaged Max % Response (±St. Dev.): activity relative to known control
Description: The high control for the agonist counterscreen was Forskolin not acetylcholine.

[1] = values printed in E-notation without unit
[2] = Homo sapiens, HEK293, HEK Agonist Activity section of Table 4 (parental HEK counterscreen)
[3] = HEK Agonist Activity section of Table 4 (parental HEK counterscreen)
[4] = HEK Agonist Activity, parental non-transfected HEK cells

Row | Structure (SMILES) | Averaged Max % Response (±St. Dev.) (GPR139) | Lipophilic Efficiency (logD) (GPR139; based on logD) | Lipophilic Efficiency (logP) (GPR139; based on logP) | Hill Slope (GPR139; fitted dose-response curve) | Efficiency Ligand (GPR139; ligand efficiency) | EC50 (GPR139; [1]) | Lipophilic Efficiency (logD) (parental HEK cells; HEK Agonist Activity section) | Lipophilic Efficiency (logP) (parental HEK cells; HEK Agonist Activity section) | Efficiency Ligand (GPR139) | Hill Slope (GPR139) | Lipophilic Efficiency (logD) (GPR139) | Lipophilic Efficiency (logP) (GPR139) | EC50 (GPR139; HEK-GPR139 cells) | Lipophilic Efficiency (logD) (parental HEK cells; HEK Agonist Activity) | Lipophilic Efficiency (logP) (parental HEK cells; HEK Agonist Activity) | Averaged Max % Response (±St. Dev.) (parental HEK cells; HEK Agonist Activity section) | EC50 (parental HEK cells; [2]) | EC50 (parental HEK cells; [3]) | Averaged Max % Response (±St. Dev.) (parental HEK cells; HEK Agonist Activity) | EC50 (parental HEK cells; [4])
1 | Cc1ccc(NC(=O)Cn2ncc3c2-c2ccccc2OC3)cc1F [SR-01000135068] | 114.56 ± 16.65% | 4.08 | 4.08 | 0.14 | 0.40 | 61.5 nM | 1.72 | 1.72 |  |  |  |  |  |  |  | −6.35 ± 1.52% | > 14100 nM |  |  | 
2 | COc1cc(-c2noc(CCC(=O)Nc3cccc(C)c3C)n2)cc(OC)c1OC [SR-01000139458] | 116.90 ± 31.97% |  |  |  |  |  | 0.80 | 0.80 | 0.29 | 1.12 | 2.20 | 2.20 | 556 nM |  |  | 16.10 ± 9.95% |  | > 14100 nM |  | 
3 | CCc1c(C2C(C(=O)OCc3ccccc3)=C(C)CC3=C2C(=O)CCC3)ccc(OC)c1OC (centres unmarked) [SR-01000406098] | 80.99 ± 4.70% |  |  |  |  |  | 1.55 | 1.55 | 0.24 | 1.97 | 2.46 | 2.46 |  |  |  | 7.56 ± 6.15% | > 11500 nM |  |  | 
4 | O=C(NCCc1ccc(Cl)cc1)c1nnc(Cc2ccc(F)cc2)o1 [SR-01000125346] | 91.83 ± 43.39% |  |  |  |  |  | 1.73 | 1.73 | 0.34 | 1.86 | 2.95 | 2.95 | 840 nM |  |  | 18.06 ± 8.45% | > 14100 nM |  |  | 
5 | O=C(CSCc1ccc(Cl)cc1Cl)NNC(=O)c1ccccc1 [SR-01000295701] | 126.44 ± 4.55% | 5.48 | 5.47 |  | 0.56 | < 0.716 nM |  |  |  |  |  |  |  | 1.19 | 1.17 |  |  |  | −4.01 ± 2.60% | > 14100 nM
6 | CC(C)C(=O)NNC(=O)C(C)Oc1ccc(Cl)cc1Cl (centres unmarked) [SR-01000361172] | 91.50 ± 11.81% |  |  |  |  |  | 1.97 | 1.93 | 0.40 | 1.48 | 2.81 | 2.78 | 2000 nM |  |  | 2.50 ± 11.74% | > 14100 nM |  |  | 
7 | O=C(CNc1nnc(CCCOc2ccc(Cl)cc2Cl)o1)Nc1nccs1 [SR-01000280669] | 83.43 ± 6.82% |  |  |  |  |  | 1.27 | 1.27 | 0.33 | 0.56 | 2.70 | 2.70 | 516 nM |  |  | −0.76 ± 4.25% | > 14100 nM |  |  | 
8 | O=C(CCc1nc2cccnc2n1Cc1cccs1)NCc1ccc2c(c1)OCO2 [SR-01000151666] | 107.14 ± 25.50% | 4.24 | 4.24 | 0.74 | 0.34 | 60.3 nM | 1.87 | 1.87 |  |  |  |  |  |  |  | −3.95 ± 11.76% | > 14100 nM |  |  | 
9 | COc1ccccc1CN1CCNC(=O)C1CC(=O)NCCCN1CCc2ccccc21 (centres unmarked) [SR-01000176838] | 83.30 ± 1.40% |  |  |  |  |  | 3.04 | 3.02 | 0.27 | 0.77 | 4.34 | 4.32 | 697 nM |  |  | −8.12 ± 1.57% | > 14100 nM |  |  | 
10 | CCCC1(CCC)NC(=O)N(CC(=O)NCc2ccc(Cl)cc2)C1=O [SR-01000050884] | 89.45 ± 3.28% |  |  |  |  |  | 1.88 | 1.88 | 0.36 | 0.73 | 3.46 | 3.46 | 408 nM |  |  | 5.22 ± 1.83% | > 15400 nM |  |  | 

Second part, led by results:

Row | Averaged Max % Response (±St. Dev.) (GPR139) | Lipophilic Efficiency (logD) (GPR139; based on logD) | Lipophilic Efficiency (logP) (GPR139; based on logP) | Hill Slope (GPR139; fitted dose-response curve) | Efficiency Ligand (GPR139; ligand efficiency) | EC50 (GPR139; [1]) | Lipophilic Efficiency (logD) (parental HEK cells; HEK Agonist Activity section) | Lipophilic Efficiency (logP) (parental HEK cells; HEK Agonist Activity section) | Efficiency Ligand (GPR139) | Hill Slope (GPR139) | Lipophilic Efficiency (logD) (GPR139) | Lipophilic Efficiency (logP) (GPR139) | EC50 (GPR139; HEK-GPR139 cells) | Lipophilic Efficiency (logD) (parental HEK cells; HEK Agonist Activity) | Lipophilic Efficiency (logP) (parental HEK cells; HEK Agonist Activity) | Structure (SMILES) | Averaged Max % Response (±St. Dev.) (parental HEK cells; HEK Agonist Activity section) | EC50 (parental HEK cells; [2]) | EC50 (parental HEK cells; [3]) | Averaged Max % Response (±St. Dev.) (parental HEK cells; HEK Agonist Activity) | EC50 (parental HEK cells; [4])
11 | 107.13 ± 9.94% | 2.98 | 2.98 | 0.51 | 0.26 | 56.5 nM | 0.56 | 0.56 |  |  |  |  |  |  |  | CSc1cccc(NC(=O)C2C3C=CC4(O3)C2C(=O)N(C(C)c2ccccc2)C4C(=O)NC2CCCCC2)c1 (centres unmarked) [SR-01000546462] | 0.58 ± 3.78% |  | > 15100 nM |  | 
12 | 113.17 ± 28.03% | 3.08 | 2.96 | 0.85 | 0.39 | 235 nM | 1.26 | 1.13 |  |  |  |  |  |  |  | CC(Oc1ccc(Cl)cc1Cl)C(=O)NNC(=O)c1ccc(F)cc1 (centres unmarked) [SR-01000520452] | 1.29 ± 6.31% | > 15700 nM |  |  | 
13 | 88.97 ± 19.06% | 1.77 | 1.77 | 0.76 | 0.35 | 205 nM | −0.064 | −0.064 |  |  |  |  |  |  |  | Cc1cccc(NC(=S)NNC(=O)CSCc2cccc3ccccc23)c1 [SR-07000002775] | 2.05 ± 12.71% | > 14100 nM |  |  | 
14 | 91.29 ± 4.98% |  |  |  |  |  | 1.86 | 1.41 | 0.36 | 0.68 | 3.43 | 2.99 | 373 nM |  |  | O=C1CCCCN1c1cccc(NS(=O)(=O)c2cc(Cl)ccc2Cl)c1 [SR-01000916375] | −1.52 ± 2.20% | > 14100 nM |  |  | 
15 | 113.87 ± 14.45% |  |  |  |  |  | 1.84 | 1.80 | 0.31 | 0.74 | 3.44 | 3.40 | 352 nM |  |  | COc1cc(C(=O)NNC(=O)C(C)Oc2ccc(Cl)cc2Cl)cc(OC)c1OC (centres unmarked) [SR-01000644888] | 30.23 ± 7.95% | > 14100 nM |  |  | 
16 | 92.66 ± 5.93% | 4.45 | 4.45 | 0.62 | 0.40 | 19.4 nM |  |  |  |  |  |  |  | 1.65 | 1.65 | COc1cc(-c2nnc(COc3ccc(Cl)cc3C)o2)cc(OC)c1OC [SR-01000504687] |  |  |  | −3.10 ± 6.59% | > 12200 nM
